The subject of one experiment is quinone reductase (QR). In words: Induction of quinone reductase activity in Hepa 1c1c7 cells. Particulars: 48 hours, compared with the control. Type of experiment: cell-based, rat. The method, then: Hepa 1c1c7 cell (2.5×10^4/ml), a liver cancer cell of […], was seeded into 96 well plate and was cultured in 10% FBS-αL-MEM (Gibco BRL) at 37° C. for 24 hours in 5% CO2 of humidified air. 190 μl of fresh media and 10 μl of xanthorrhizol dissolved in 10% of DMSO was added to above culture media and it was cultured under 5% CO2 at 37° C. for 48 hours. The culture media were discarded, and after washing with PBS (phosphate buffered saline), 50 μl of reaction solution containing 0.8% digitonin and 2 mM EDTA was added to each well, and it was cultured for 10 minutes to destroy the cell. […] Then, 50 μl of 5 mM potassium phosphate (pH 7.4) solution containing 0.3 mM of dicoumarol was added to terminate the reaction and the absorbance at 595 nm was measured spectrophotometrically.
To assess the effect of xanthorrhizol on cell growth, protein was measured in the 2nd plate set cultured under same condition above. […] And 200 μl of 0.5% SDS was added to cell and mixed, then the absorbance at 595 nm was measured spectophotometrically.
To estimate the experimental result, firstly, QR specific activity of each group treated with xanthorrhizol and the control group was calculated by following equation 1. […] QR specific activity=(Absorbance change of MTT per min/Absorbance change of crystal violet)×3247 nmol/mg [Equation 1] […]

For the next experiment, the system named is procaspase-3. The experiment can be described thus: Activation of procaspase-3 in HL-60 cells (western blotting). Type of experiment: cell-based, Human. The following applies: 40 μM. Here is the method:
To investigate whether xanthorrhizol also induces the activation of procaspase-3, HL-60 cells were treated with 0, 10, 40, 80 μM of xanthorrhizol for 24 hr and was also treated with 80 μM of xanthorrhizol for 0, 2, 4, 6, 9 and 12 hr. The cells were harvested, suspended in 400 μl of lysis buffer described in embodiment 4, incubated 4° C. for 40 min and centrifuged. The supernatant was electrophoresized on the 12% SDS-polyacrylamide gel. Blot was transferred from SDS-polyacrylamide gel to PVDF membrane, blocked with 5% fat-free dry milk-PBST buffer for 2 hr at room temperature and then washed in PBST buffer. Membrane was incubated for 2 hr at room temperature with mouse procaspase-3 monoclonal antibody (Transduction Laboratories, Lexington, Ky., USA). Blot was rinsed with PBST, incubated with mouse horseradish peroxidase-conjugated secondary antibody and again washed 3 times in PBST buffer for 5 min. Transferred protein was visualized with an ECL detection kit.

A further experiment relates to HL-60 cells. The experiment can be described thus: DNA fragmentation in HL-60 cells (agarose gel electrophoresis). The following applies: 80 μM, 24 hr. Type of experiment: cell-based, Human. Here is the method:
HL-60 cells were cultured in 10% FBS-RPMI 1640 medium of 100 mm Petri dish for 2 days. The cells were treated with 0,10, 40, 80 μM of xanthorrhizol to investigate the effect of xanthorrhizol on DNA fragmentation, a biochemical marker of apoptosis. After 24 hr, the cells were collected, incubated with 500 μl of lysis buffer (1 % Triton-X 100, 50 mM Tris-HCl pH 7.4, 20 mM EDTA) for 1 hr on ice, and centrifuged. To the supernatant was added 100 μl of 1% SDS, 10 μl f TE/RNase(10 mg/ml), 50 µl of proteinase K (1 mg/ml) and the mixture was incubated at 37° C. at least for 4 hr. DNA was extracted with phenol-chloroform-isoamylalcohol (25:24:1, v/v) and precipitated at −70° C. for 1 hr after addition of 2.5 volumes of cold ethanol. DNA fragments were resolved by 1.5% agarose gel electrophoresis and visualized by staining with ethidium bromide.

Experiment [1] deals with Salmonella typhimurium TA102 strain. The experiment can be described thus: Antimutagenic effect on mutagenesis induced by reactive oxygen species (His+ revertant colonies). Type of experiment: cell-based. Particulars: compared with curcumin as positive control. The method, then:
The antimutagenic effect of xanthorrhizol was examined in Salmonella typhimurium TA102 strain including mutagenesis with reactive oxygen species (Levin, D. E., et al., Proc. Natl. Acad. Sci. U. S. A., 79;7445-7449, 1982).
Salmonella typhimurium TA102 strain was cultured in Oxoid nutrient broth medium for 11 hours. 100 μl of above-cultured medium was added to 600 μl of the reaction mixture containing tert-butylhydroperoxide (100 μg/plate) or hydrogen peroxide (50 μg/plate) with or without xanthorrhizol and incubated for 30 minutes at 37° C. Curcumin was added instead of xanthorrhizol in positive control. The concentration of xanthorrhizol or curcumin was 0, 10, 20, 40, 60 nmol/plate and 2, 4, 8, 10, 20, 50 nmol/plate respectively in experiment to examine the inhibitory effect of xanthorrhizol against tert-butylhydroperoxide and hydrogen peroxide-induced mutagenesis. The reaction mixture was transferred to 2 ml of top agar solution containing 0.5 mM of histidine and biotin and was homogeneously mixed. It was poured to minimal glucose plate. The plates were incubated for 48 hours at 37° C. and the number of His+ revertant colonies counted.

Regarding `CC(C)=CCC[C@@H](C)c1ccc(C)c(O)c1` [xanthorrhizol], the “QR induction ratio (treated/control)” value is on record as “about 125%” with quinone reductase (QR) (0.4 μM) and around 130% with quinone reductase (QR) (50 μM). For the same compound, the “activation of procaspase-3” value with procaspase-3 is on record as “activated the procaspase-3 to caspase-3”. Besides, the DNA fragmentation result in the experiment with HL-60 cells is given as “induced”. In experiment [1] (hydrogen peroxide 50 μg/plate), the “inhibitory effect against mutagenesis induced by hydrogen peroxide” value is “more excellent inhibitory effect”. Also, in experiment [1] (tert-butylhydroperoxide 100 μg/plate), the “inhibitory effect against mutagenesis induced by tert-butylhydroperoxide” value is recorded as “more excellent inhibitory effect”.
